# Test results taken from patent publication US10919916B2, “Boron-containing small molecules” (Bill & Melinda Gates Foundation, priority 2016, dated 2021).
# Counter-ions that a name gives are not always drawn. Like-named read-outs stand apart in the source and are kept apart here.
# Legend:
# [1] = test system: Staphylococcus aureus, MRSA (ATCC 33591); assay: Antibacterial MIC assay (microbroth dilution, CLSI); assay type: cell-based; settings: read-out: MIC Staphylococcus aureus, MRSA (ATCC 33591)
# Source text: (§1) All MIC testing of bacteria followed the Clinical and Laboratory Standards Institute (CLSI) guidelines for antimicrobial testing of aerobic bacteria (Methods for Dilution Antimicrobial Susceptibility Tests for Bacteria that Grow Aerobically; Approved Standard—Tenth Edition, M07-A10; Performance Standards for Antimicrobial Susceptibility Testing; Twenty-fifth Informational Supplement, M100-S25).
# (§2) Briefly, the microbroth dilution MIC method was used to quantitatively measure the in vitro antibacterial activity of a compound against a given bacterial isolate. The following bacterial strains were evaluated: Staphylococcus aureus, MRSA (ATCC 33591) and Streptococcus pneumoniae (ATCC 49619). Bacteria were grown in cation-adjusted Mueller-Hinton broth, with additions as required per species growth requirements (e.g. 3% lysed horse blood for fastidious organisms such as S. pneumoniae). A direct colony suspension in saline was prepared from colonies on an overnight agar plate to achieve a turbidity equivalent to 0.5 McFarland standard, which was subsequently diluted into the assay plate to achieve 5×10^5 CFU/mL. Assays plates were prepared by 2-fold dilution of compound across the plate and included a positive growth control.
# [2] = test system: Streptococcus pneumoniae (ATCC 49619); assay: as above; assay type: cell-based
# Source text: as §1
# as §2, with “The following bacterial strains were evaluated: Staphylococcus aureus, MRSA (ATCC 33591) and Streptococcus pneumoniae (ATCC 49619).” left out
# [3] = ATCC49619, read-out: MIC Streptococcus pneumoniae (ATCC 49619)
# [4] = microbroth dilution, cation-adjusted Mueller-Hinton broth, 35° C. for 16-20 hours
# [5] = ATCC49619, microbroth dilution, 3% lysed horse blood, 35° C. for 16-20 hours, read-out: MIC Streptococcus pneumoniae (ATCC 49619)
"MIC [1, 4]","MIC [2, 5]",SMILES,MIC [1],"MIC [2, 3]"
–,–,"C=C[C@]1(C)C[C@@H](OC(=O)COc2ccc3c(c2)B(O)OC3(C)C)[C@]2(C)[C@H](C)CC[C@]3(CCC(=O)[C@H]32)[C@@H](C)[C@@H]1O [Compound 20, (3aR,4R,5R,7S,8S,9R,9aS,12R)-8-hydroxy-4,7,9,12-tetramethyl-3-oxo-7-vinyldecahydro-4,9a-propanocyclopenta[8]annulen-5-yl 2-((1-hydroxy-3,3-dimethyl-1,3-dihydrobenzo[c][1,2]oxaborol-6-yl)oxy)acetate]",< 0.25 µg/mL,0.5 to 2 µg/mL
0.5 to 2 µg/mL,–,"C=C[C@]1(C)C[C@@H](OC(=O)COc2ccc3c(c2)B(O)OC3CN)[C@]2(C)[C@H](C)CC[C@]3(CCC(=O)[C@H]32)[C@@H](C)[C@@H]1O.Cl (stereo partly drawn) [Compound 21, (3aR,4R,5R,7S,8S,9R,9aS,12R)-8-hydroxy-4,7,9,12-tetramethyl-3-oxo-7-vinyldecahydro-4,9a-propanocyclopenta[8]annulen-5-yl 2-((3-(aminomethyl)-1-hydroxy-1,3-dihydrobenzo[c][1,2]oxaborol-6-yl)oxy)acetate Hydrochloride]",–,< 0.25 µg/mL
0.5 to 2 µg/mL,0.5 to 2 µg/mL,"C=C[C@]1(C)C[C@@H](OC(=O)COc2ccc3c(c2F)B(O)OC3CN)[C@]2(C)[C@H](C)CC[C@]3(CCC(=O)[C@H]32)[C@@H](C)[C@@H]1O.Cl (stereo partly drawn) [Compound 29, (3aR,4R,5R,7S,8S,9R,9aS,12R)-8-hydroxy-4,7,9,12-tetramethyl-3-oxo-7-vinyldecahydro-4,9a-propanocyclopenta[8]annulen-5-yl 2-((3-(aminomethyl)-7-fluoro-1-hydroxy-1,3-dihydrobenzo[c][1,2]oxaborol-6-yl)oxy)acetate Hydrochloride]",–,–
–,–,"C=C[C@]1(C)C[C@@H](OC(=O)COc2ccc3c(c2Cl)B(O)OC3CN)[C@]2(C)[C@H](C)CC[C@]3(CCC(=O)[C@H]32)[C@@H](C)[C@@H]1O (stereo partly drawn) [Compound 31, (3aR,4R,5R,7S,8S,9R,9aS,12R)-8-hydroxy-4,7,9,12-tetramethyl-3-oxo-7-vinyldecahydro-4,9a-propanocyclopenta[8]annulen-5-yl 2-((3-(aminomethyl)-7-chloro-1-hydroxy-1,3-dihydrobenzo[c][1,2]oxaborol-6-yl)oxy)acetate Hydrochloride]",0.5 to 2 µg/mL,0.5 to 2 µg/mL
–,–,"C=C[C@]1(C)C[C@@H](OC(=O)COc2ccc3c(c2)COB3O)[C@]2(C)[C@H](C)CC[C@]3(CCC(=O)[C@H]32)[C@@H](C)[C@@H]1O [Compound 32, (3aR,4R,5R,7S,8S,9R,9aS,12R)-8-hydroxy-4,7,9,12-tetramethyl-3-oxo-7-vinyldecahydro-4,9a-propanocyclopenta[8]annulen-5-yl 2-((1-hydroxy-1,3-dihydrobenzo[c][1,2]oxaborol-5-yl)oxy)acetate]",< 0.25 µg/mL,0.5 to 2 µg/mL
–,–,"C=C[C@]1(C)C[C@@H](OC(=O)COc2cc(F)c3c(c2)COB3O)[C@]2(C)[C@H](C)CC[C@]3(CCC(=O)[C@H]32)[C@@H](C)[C@@H]1O [Compound 33, (3aR,4R,5R,7S,8S,9R,9aS,12R)-8-hydroxy-4,7,9,12-tetramethyl-3-oxo-7-vinyldecahydro-4,9a-propanocyclopenta[8]annulen-5-yl 2-((7-fluoro-1-hydroxy-1,3-dihydrobenzo[c][1,2]oxaborol-5-yl)oxy)acetate]",< 0.25 µg/mL,0.5 to 2 µg/mL
–,–,"C=C[C@]1(C)C[C@@H](OC(=O)COc2cc3c(cc2F)B(O)OC3)[C@]2(C)[C@H](C)CC[C@]3(CCC(=O)[C@H]32)[C@@H](C)[C@@H]1O [Compound 34, (3aR,4R,5R,7S,8S,9R,9aS,12R)-8-hydroxy-4,7,9,12-tetramethyl-3-oxo-7-vinyldecahydro-4,9a-propanocyclopenta[8]annulen-5-yl 2-((6-fluoro-1-hydroxy-1,3-dihydrobenzo[c][1,2]oxaborol-5-yl)oxy)acetate]",< 0.25 µg/mL,0.5 to 2 µg/mL
0.5 to 2 µg/mL,0.5 to 2 µg/mL,"C=C[C@]1(C)C[C@@H](OC(=O)Nc2ccc3c(c2)B(O)OC3)[C@]2(C)[C@H](C)CC[C@]3(CCC(=O)[C@H]32)[C@@H](C)C1=O [Compound 43, (3aR,4R,5R,7S,9R,9aS,12R)-4,7,9,12-tetramethyl-3,8-dioxo-7-vinyldecahydro-4,9a-propanocyclopenta[8]annulen-5-yl (1-hydroxy-1,3-dihydrobenzo[c][1,2]oxaborol-6-yl)carbamate]",–,–
–,–,"C=C[C@]1(C)C[C@@H](OC(=O)CNc2ccc3c(c2)B(O)OC3)[C@]2(C)[C@H](C)CC[C@]3(CCC(=O)[C@H]32)[C@@H](C)[C@@H]1O [Compound 45, (3aR,4R,5R,7S,8S,9R,9aS,12R)-8-hydroxy-4,7,9,12-tetramethyl-3-oxo-7-vinyldecahydro-4,9a-propanocyclopenta[8]annulen-5-yl (1-hydroxy-1,3-dihydrobenzo[c][1,2]oxaborol-6-yl)glycinate]",< 0.25 µg/mL,0.5 to 2 µg/mL
–,–,"C=C[C@]1(C)C[C@@H](OC(=O)CNc2cc3c(cc2F)COB3O)[C@]2(C)[C@H](C)CC[C@]3(CCC(=O)[C@H]32)[C@@H](C)[C@@H]1O [Compound 46, (3aR,4R,5R,7S,8S,9R,9aS,12R)-8-hydroxy-4,7,9,12-tetramethyl-3-oxo-7-vinyldecahydro-4,9a-propanocyclopenta[8]annulen-5-yl (5-fluoro-1-hydroxy-1,3-dihydrobenzo[c][1,2]oxaborol-6-yl)glycinate]",< 0.25 µg/mL,0.5 to 2 µg/mL
0.5 to 2 µg/mL,4 to 32 µg/mL,"C=C[C@]1(C)C[C@@H](OC(=O)CNc2cc3c(cc2CN)COB3O)[C@]2(C)[C@H](C)CC[C@]3(CCC(=O)[C@H]32)[C@@H](C)[C@@H]1O [Compound 47, (3aR,4R,5R,7S,8S,9R,9aS,12R)-8-hydroxy-4,7,9,12-tetramethyl-3-oxo-7-vinyldecahydro-4,9a-propanocyclopenta[8]annulen-5-yl (5-(aminomethyl)-1-hydroxy-1,3-dihydrobenzo[c][1,2]oxaborol-6-yl)glycinate]",–,–
–,–,"C=C[C@]1(C)C[C@@H](OC(=O)CNc2ccc3c(c2CN)B(O)OC3)[C@]2(C)[C@H](C)CC[C@]3(CCC(=O)[C@H]32)[C@@H](C)[C@@H]1O [Compound 49, (3aR,4R,5R,7S,8S,9R,9aS,12R)-8-hydroxy-4,7,9,12-tetramethyl-3-oxo-7-vinyldecahydro-4,9a-propanocyclopenta[8]annulen-5-yl (7-(aminomethyl)-1-hydroxy-1,3-dihydrobenzo[c][1,2]oxaborol-6-yl)glycinate]",0.5 to 2 µg/mL,0.5 to 2 µg/mL
–,–,"C=C[C@]1(C)C[C@@H](OC(=O)CNc2cc(CN)c3c(c2)B(O)OC3)[C@]2(C)[C@H](C)CC[C@]3(CCC(=O)[C@H]32)[C@@H](C)[C@@H]1O [Compound 50, (3aR,4R,5R,7S,8S,9R,9aS,12R)-8-hydroxy-4,7,9,12-tetramethyl-3-oxo-7-vinyldecahydro-4,9a-propanocyclopenta[8]annulen-5-yl (4-(aminomethyl)-1-hydroxy-1,3-dihydrobenzo[c][1,2]oxaborol-6-yl)glycinate]",0.5 to 2 µg/mL,< 0.25 µg/mL
–,–,"C=C[C@]1(C)C[C@@H](OC(=O)CNc2ccc3c(c2)B(O)OC3(C)C)[C@]2(C)[C@H](C)CC[C@]3(CCC(=O)[C@H]32)[C@@H](C)[C@@H]1O [Compound 51, (3aR,4R,5R,7S,8S,9R,9aS,12R)-8-hydroxy-4,7,9,12-tetramethyl-3-oxo-7-vinyldecahydro-4,9a-propanocyclopenta[8]annulen-5-yl (1-hydroxy-3,3-dimethyl-1,3-dihydrobenzo[c][1,2]oxaborol-6-yl)glycinate]",< 0.25 µg/mL,0.5 to 2 µg/mL
–,–,"C=C[C@]1(C)C[C@@H](OC(=O)CNc2ccc3c(c2)B(O)OC3CN)[C@]2(C)[C@H](C)CC[C@]3(CCC(=O)[C@H]32)[C@@H](C)[C@@H]1O (stereo partly drawn) [Compound 52, (3aR,4R,5R,7S,8S,9R,9aS,12R)-8-hydroxy-4,7,9,12-tetramethyl-3-oxo-7-vinyldecahydro-4,9a-propanocyclopenta[8]annulen-5-yl (3-(aminomethyl)-1-hydroxy-1,3-dihydrobenzo[c][1,2]oxaborol-6-yl)glycinate]",0.5 to 2 µg/mL,0.5 to 2 µg/mL
–,–,"C=C[C@]1(C)C[C@@H](OC(=O)CNc2ccc3c(c2F)B(O)OC3)[C@]2(C)[C@H](C)CC[C@]3(CCC(=O)[C@H]32)[C@@H](C)[C@@H]1O [Compound 54, (3aR,4R,5R,7S,8S,9R,9aS,12R)-8-hydroxy-4,7,9,12-tetramethyl-3-oxo-7-vinyldecahydro-4,9a-propanocyclopenta[8]annulen-5-yl (7-fluoro-1-hydroxy-1,3-dihydrobenzo[c][1,2]oxaborol-6-yl)glycinate]",< 0.25 µg/mL,0.5 to 2 µg/mL
